From publication PMC9018117 (The Journal of nutritional biochemistry, 2021)
Each block holds one molecule with its values, some of them ahead of it.

How the values were obtained:
human recombinant 5-LOX [1] = target: T1, human recombinant 5-LOX (Homo sapiens, UniProt P09917); experiment: 5-LOX enzyme kinetics; assay type: biochemical; conditions: for Nature of inhibition of 5-LOX: Lineweaver-Burk double reciprocal plot
T1 sequence (P09917 1-674): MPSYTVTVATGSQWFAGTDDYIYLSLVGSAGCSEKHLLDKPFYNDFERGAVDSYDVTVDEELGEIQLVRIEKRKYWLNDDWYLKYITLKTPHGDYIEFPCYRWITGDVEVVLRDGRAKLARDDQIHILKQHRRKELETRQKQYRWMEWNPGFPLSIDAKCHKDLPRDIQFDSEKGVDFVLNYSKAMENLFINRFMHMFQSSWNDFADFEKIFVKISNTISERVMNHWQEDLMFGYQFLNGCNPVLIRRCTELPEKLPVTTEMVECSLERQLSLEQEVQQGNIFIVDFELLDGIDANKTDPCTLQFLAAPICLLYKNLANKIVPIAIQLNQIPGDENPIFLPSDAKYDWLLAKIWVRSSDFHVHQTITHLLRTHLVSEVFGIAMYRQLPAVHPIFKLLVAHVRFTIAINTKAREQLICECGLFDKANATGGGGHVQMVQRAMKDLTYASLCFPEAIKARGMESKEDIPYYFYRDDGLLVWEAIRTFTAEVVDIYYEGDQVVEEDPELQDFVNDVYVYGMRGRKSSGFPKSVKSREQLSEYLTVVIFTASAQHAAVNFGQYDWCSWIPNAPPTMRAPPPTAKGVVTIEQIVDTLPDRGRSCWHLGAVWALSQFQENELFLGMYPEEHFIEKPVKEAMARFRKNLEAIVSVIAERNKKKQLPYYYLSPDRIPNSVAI

[2] = tested on: COX-2-mediated PGE2 in A549 cells; experiment: COX-2 activity in intact-cell assay, IL-1β-stimulated A549 cells; assay type: cell-based, human; conditions: read-out: IC50 for inhibition of COX-2-mediated PGE2; IL-1β-stimulated A549 epithelial cells; 5 μM AA
[3] = tested on: 5-LOX translocation in differentiated HL-60 cells; experiment: 5-LOX translocation from cytosol to nucleus by western blotting; assay type: cell-based, human; conditions: 20 μM, 30 min preincubation
[4] = tested on: LTB4 formation in differentiated HL-60 cells; experiment: LTB4 formation in stimulated neutrophil-like differentiated HL-60 cells; assay type: cell-based, human; conditions: for Effect on THAP-stimulated LTB4 (in words): at up to 50 μM, not shown
[5] = tested on: 5-LOX translocation in differentiated HL-60 cells; conditions: cited from earlier work
human recombinant COX-1 = human recombinant COX-1 (Homo sapiens, UniProt P23219); experiment: COX-1 activity assay using purified enzyme; assay type: biochemical
Sequence of human recombinant COX-1 (P23219 24-599): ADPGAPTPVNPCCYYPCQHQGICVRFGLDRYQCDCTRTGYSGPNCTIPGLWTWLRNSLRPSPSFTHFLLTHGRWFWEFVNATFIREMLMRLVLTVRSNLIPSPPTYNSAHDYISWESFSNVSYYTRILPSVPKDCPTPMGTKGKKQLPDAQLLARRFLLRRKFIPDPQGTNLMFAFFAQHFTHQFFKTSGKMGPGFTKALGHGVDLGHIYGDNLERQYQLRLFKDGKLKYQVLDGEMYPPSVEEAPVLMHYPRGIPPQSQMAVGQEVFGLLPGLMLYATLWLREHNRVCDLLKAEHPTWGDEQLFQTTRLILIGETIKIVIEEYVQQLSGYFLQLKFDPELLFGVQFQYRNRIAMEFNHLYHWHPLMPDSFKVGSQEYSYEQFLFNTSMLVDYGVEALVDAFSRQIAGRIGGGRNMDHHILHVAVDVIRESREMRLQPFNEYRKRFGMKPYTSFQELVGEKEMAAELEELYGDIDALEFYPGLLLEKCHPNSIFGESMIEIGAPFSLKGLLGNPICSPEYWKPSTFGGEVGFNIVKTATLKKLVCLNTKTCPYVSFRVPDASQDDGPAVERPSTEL

human recombinant 5-LOX [6] = target: T1, human recombinant 5-LOX; experiment: 5-LOX activity, ferrous oxidation-xylenol orange; assay type: biochemical
5-LOX = conditions: read-out: IC50 for inhibition of 5-LOX; ref 10 (Pein et al); cited from earlier work
LTB4 in cells = conditions: read-out: IC50 for inhibition of LTB4 in cells; ref 10 (Pein et al); cited from earlier work
5-LOX enzyme kinetics = substrate: CCCCC/C=C\C/C=C\C/C=C\C/C=C\CCCC(=O)O; experiment: 5-LOX enzyme kinetics; assay type: biochemical, human; conditions: other: substrate AA 5–50 μM; oxygen consumption; pH 7.4

Nature of inhibition of 5-LOX (human recombinant 5-LOX [1]): competitive inhibitor
IC50 [2]: 2500 to 5000 nM
Molecule: Cc1cc(O)cc2c1OC(C)(CCCC(C)CCCC(C)CCCC(C)C(=O)O)CC2 (centres unmarked) [δT-13’-COOH, δT-13’-carboxychromanol]
Impact on THAP-induced 5-LOX translocation (in words) [3]: did not show any significant impact

Molecule: Cc1cc(O)cc2c1O[C@](C)(CCC[C@H](C)CCC[C@H](C)CCCC(C)C)CC2 [δT, δ-tocopherol]
Effect on THAP-stimulated LTB4 (in words) [4]: no significant effect

Molecule: CC(C)=CCC/C(C)=C/CC/C(C)=C/CC[C@]1(C)CCc2cc(O)c(C)c(C)c2O1 [γTE, γ-tocotrienol]
Effect on A23187-stimulated 5-LOX translocation (in words) [5]: modestly blocked
Impact on THAP-induced 5-LOX translocation (in words) [3]: did not show any significant impact
IC50 (human recombinant COX-1): 1000 to 2500 nM
IC50 (human recombinant 5-LOX [6]): 4300 nM

IC50 (human recombinant COX-1): ~12000 nM
Molecule: Cc1c(C)c2c(c(C)c1O)CC[C@@](C)(CCC[C@H](C)CCC[C@H](C)CCCC(C)C)O2 [αT, α-tocopherol]

IC50 [2]: 2500 to 5000 nM
Molecule: C/C(=C\CC/C(C)=C/CC[C@]1(C)CCc2cc(O)cc(C)c2O1)CC/C=C(\C)C(=O)O [δTE-13’-COOH, δTE-13’-carboxychromanol]
IC50 (LTB4 in cells): ~260 nM
Impact on THAP-induced 5-LOX translocation (in words) [3]: did not show any significant impact

IC50 (human recombinant COX-1): 1000 to 2500 nM
Molecule: Cc1c(O)cc2c(c1C)O[C@](C)(CCC[C@H](C)CCC[C@H](C)CCCC(C)C)CC2 [γT, γ-tocopherol]
Effect on THAP-stimulated LTB4 (in words) [4]: no significant effect

IC50 (human recombinant 5-LOX [6]): > 50000 nM
Molecule: Cc1c(O)cc2c(c1C)OC(C)(CCC(=O)O)CC2 (stereo not drawn) [γ-CEHC, 2-(β-carboxyethyl)-6-hydroxychroman]

Ki (human recombinant 5-LOX [1]): 2200 nM
Nature of inhibition of 5-LOX (human recombinant 5-LOX [1]): competitive inhibitor
IC50 (human recombinant COX-1): 1000 to 2500 nM
IC50 (human recombinant 5-LOX [6]): 4300 nM
Molecule: CC(C)=CCC/C(C)=C/CC/C(C)=C/CC[C@]1(C)CCc2cc(O)cc(C)c2O1 [δTE, δ-tocotrienol]
Effect on A23187-stimulated LTB4 (in words) ([4]; neutrophil-like HL-60 cells, data not shown): inhibited
Impact on THAP-induced 5-LOX translocation (in words) [3]: did not show any significant impact

B1: human recombinant 5-LOX (Homo sapiens) (protein)
chain: MPSYTVTVATGSQWFAGTDDYIYLSLVGSAGCSEKHLLDKPFYNDFERGAVDSYDVTVDEELGEIQLVRIEKRKYWLNDDWYLKYITLKTPHGDYIEFPCYRWITGDVEVVLRDGRAKLARDDQIHILKQHRRKELETRQKQYRWMEWNPGFPLSIDAKCHKDLPRDIQFDSEKGVDFVLNYSKAMENLFINRFMHMFQSSWNDFADFEKIFVKISNTISERVMNHWQEDLMFGYQFLNGCNPVLIRRCTELPEKLPVTTEMVECSLERQLSLEQEVQQGNIFIVDFELLDGIDANKTDPCTLQFLAAPICLLYKNLANKIVPIAIQLNQIPGDENPIFLPSDAKYDWLLAKIWVRSSDFHVHQTITHLLRTHLVSEVFGIAMYRQLPAVHPIFKLLVAHVRFTIAINTKAREQLICECGLFDKANATGGGGHVQMVQRAMKDLTYASLCFPEAIKARGMESKEDIPYYFYRDDGLLVWEAIRTFTAEVVDIYYEGDQVVEEDPELQDFVNDVYVYGMRGRKSSGFPKSVKSREQLSEYLTVVIFTASAQHAAVNFGQYDWCSWIPNAPPTMRAPPPTAKGVVTIEQIVDTLPDRGRSCWHLGAVWALSQFQENELFLGMYPEEHFIEKPVKEAMARFRKNLEAIVSVIAERNKKKQLPYYYLSPDRIPNSVAI
Km (5-LOX enzyme kinetics): 2.1 µM
